Assay results taken from paper PMC6826623 (2019).

Tests used:
Assay in all cases: UV-Vis absorption titration at 316 nm
[1] = system: 2HY9 (DNA, G4) AAAGGGTTAGGGTTAGGGTTAGGGAA; conditions: 100 mM K+, 50 mM Tris-HCl, pH 7.4, hybrid G4, per base
[2] = system: hTelo (DNA, G4) AGGGTTAGGGTTAGGGTTAGGG; conditions: 50 mM Tris-HCl
[3] = system: c-MYC (DNA, G4) TGGGGAGGGTGGGGAGGGTGGGGAAGG; conditions: 100 mM K+, 50 mM Tris-HCl, pH 7.4, parallel G4, per base

Kb [1]: (1.1 ± 0.1) × 10^5 M^-1
Kb ([2]; 100 mM K+, pH 7.4, 40% (w/v) PEG 200, parallel G4, per base): (3.5 ± 0.9) × 10^5 M^-1
Kb ([2]; 100 mM Na+, pH 7.4, antiparallel G4, per base): (2.69 ± 0.06) × 10^5 M^-1
Kb [3]: (1.0 ± 0.1) × 10^5 M^-1
Compound: COc1ccc2c(c[n+](C)c3c4cc5c(cc4ccc23)OCO5)c1OC
